In ChEMBL document CHEMBL5584327, “Phenylstyrylpyrimidine derivatives as potential multipotent therapeutics for Alzheimer's disease” (RSC Med Chem, 2024):
The source made the active and inactive calls. No cut-off for these calls is given here.

Experiments:
[1] = target: T1, Amine oxidase [flavin-containing] B (Homo sapiens, UniProt P27338); experiment: Inhibition of human MAO-B at 10 uM using p-tyramine as substrate incubated for 30 mins by Amplex Red reagent based fluorescence analysis relative to control; settings: 0.5 h
T1 sequence (P27338 whole entry): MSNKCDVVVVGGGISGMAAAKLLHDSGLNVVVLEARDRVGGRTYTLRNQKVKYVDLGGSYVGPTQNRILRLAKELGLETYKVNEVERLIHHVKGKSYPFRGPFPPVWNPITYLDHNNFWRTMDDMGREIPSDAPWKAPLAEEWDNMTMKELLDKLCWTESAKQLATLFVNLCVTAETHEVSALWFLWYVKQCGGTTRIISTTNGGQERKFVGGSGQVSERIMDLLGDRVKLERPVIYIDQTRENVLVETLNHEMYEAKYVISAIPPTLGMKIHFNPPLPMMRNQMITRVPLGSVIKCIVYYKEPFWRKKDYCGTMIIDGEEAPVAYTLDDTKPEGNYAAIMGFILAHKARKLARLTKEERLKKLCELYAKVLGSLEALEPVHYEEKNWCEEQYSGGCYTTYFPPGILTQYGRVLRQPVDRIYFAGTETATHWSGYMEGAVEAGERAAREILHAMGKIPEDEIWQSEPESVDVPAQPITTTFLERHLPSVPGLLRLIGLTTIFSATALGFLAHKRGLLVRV

[2] = target: T2, Amine oxidase [flavin-containing] A (Homo sapiens, UniProt P21397); experiment: Inhibition of human MAO-A at 25 uM using p-tyramine as substrate incubated for 30 mins by Amplex Red reagent based fluorescence analysis; settings: 0.5 h
T2 sequence (P21397 whole entry): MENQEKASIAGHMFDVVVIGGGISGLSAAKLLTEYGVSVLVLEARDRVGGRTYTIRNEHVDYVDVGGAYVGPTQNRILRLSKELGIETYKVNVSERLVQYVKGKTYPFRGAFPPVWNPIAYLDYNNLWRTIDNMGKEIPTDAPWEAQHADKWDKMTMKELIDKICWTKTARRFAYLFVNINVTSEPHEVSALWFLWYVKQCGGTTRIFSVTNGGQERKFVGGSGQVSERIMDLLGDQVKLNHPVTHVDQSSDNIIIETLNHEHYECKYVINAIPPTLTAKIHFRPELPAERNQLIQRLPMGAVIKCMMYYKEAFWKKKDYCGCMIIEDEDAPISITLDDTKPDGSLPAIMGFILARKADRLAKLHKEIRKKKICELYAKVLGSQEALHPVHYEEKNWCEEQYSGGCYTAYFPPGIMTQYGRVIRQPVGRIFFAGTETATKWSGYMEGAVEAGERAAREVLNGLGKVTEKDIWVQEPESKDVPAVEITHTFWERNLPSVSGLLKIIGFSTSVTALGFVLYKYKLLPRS

[3] = target: Acetylcholinesterase (Electrophorus electricus) (UniProt O42275); experiment: Inhibition of electric eel AChE at 20 uM using acetylthiocholine iodide as substrate incubated for 30 min by DTNB reagent based Ellman's method relative to control
Chain of Acetylcholinesterase (Electrophorus electricus) (O42275 24-633 limits assumed): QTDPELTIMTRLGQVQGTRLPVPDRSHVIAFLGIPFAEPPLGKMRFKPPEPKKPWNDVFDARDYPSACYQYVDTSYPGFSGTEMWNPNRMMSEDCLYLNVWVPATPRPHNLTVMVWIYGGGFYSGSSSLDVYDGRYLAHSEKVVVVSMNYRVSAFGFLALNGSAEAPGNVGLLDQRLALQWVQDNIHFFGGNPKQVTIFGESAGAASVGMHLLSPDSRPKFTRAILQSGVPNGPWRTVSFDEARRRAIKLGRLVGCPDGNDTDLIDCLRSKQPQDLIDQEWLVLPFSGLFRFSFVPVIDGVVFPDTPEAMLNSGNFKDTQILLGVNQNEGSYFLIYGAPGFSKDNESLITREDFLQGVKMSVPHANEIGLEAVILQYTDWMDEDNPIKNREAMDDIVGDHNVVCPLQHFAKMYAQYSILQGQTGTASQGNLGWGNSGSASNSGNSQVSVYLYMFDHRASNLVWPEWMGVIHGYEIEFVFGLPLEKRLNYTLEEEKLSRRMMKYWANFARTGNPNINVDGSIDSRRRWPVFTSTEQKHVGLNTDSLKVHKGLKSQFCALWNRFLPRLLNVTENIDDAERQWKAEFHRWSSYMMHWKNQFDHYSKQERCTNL

[4] = target: Cholinesterase (Equus caballus) (UniProt P81908); experiment: Inhibition of equine BuChE at 20 uM using butyryl-thiocholine iodide as substrate incubated for 30 min by DTNB reagent based Ellman's method relative to control
Chain of Cholinesterase (Equus caballus) (P81908 whole entry): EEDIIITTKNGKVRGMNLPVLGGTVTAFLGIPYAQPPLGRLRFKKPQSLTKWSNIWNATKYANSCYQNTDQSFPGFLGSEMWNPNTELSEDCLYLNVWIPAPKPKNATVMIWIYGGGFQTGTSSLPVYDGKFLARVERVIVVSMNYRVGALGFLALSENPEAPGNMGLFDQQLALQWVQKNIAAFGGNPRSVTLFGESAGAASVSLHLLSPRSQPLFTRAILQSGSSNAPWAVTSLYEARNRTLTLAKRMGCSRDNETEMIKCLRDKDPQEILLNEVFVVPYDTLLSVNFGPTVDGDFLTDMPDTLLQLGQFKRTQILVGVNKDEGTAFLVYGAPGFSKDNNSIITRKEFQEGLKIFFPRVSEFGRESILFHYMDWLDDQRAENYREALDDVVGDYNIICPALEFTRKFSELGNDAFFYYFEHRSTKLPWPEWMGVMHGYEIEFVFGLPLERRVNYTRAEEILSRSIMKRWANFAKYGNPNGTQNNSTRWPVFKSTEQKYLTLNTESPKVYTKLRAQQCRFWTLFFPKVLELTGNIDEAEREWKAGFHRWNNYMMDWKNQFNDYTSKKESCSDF

[5] = target: T1, Amine oxidase [flavin-containing] B; experiment: Inhibition of human MAO-B using p-tyramine as substrate incubated for 30 mins by Amplex Red reagent based fluorescence analysis
Acetylcholinesterase [6] = target: Acetylcholinesterase (Electrophorus electricus, UniProt O42275); experiment: Inhibition of electric eel AChE using acetylthiocholine iodide as substrate incubated for 30 min by DTNB reagent based Ellman's method
Chain of Acetylcholinesterase (Electrophorus electricus, UniProt O42275) (O42275 whole entry): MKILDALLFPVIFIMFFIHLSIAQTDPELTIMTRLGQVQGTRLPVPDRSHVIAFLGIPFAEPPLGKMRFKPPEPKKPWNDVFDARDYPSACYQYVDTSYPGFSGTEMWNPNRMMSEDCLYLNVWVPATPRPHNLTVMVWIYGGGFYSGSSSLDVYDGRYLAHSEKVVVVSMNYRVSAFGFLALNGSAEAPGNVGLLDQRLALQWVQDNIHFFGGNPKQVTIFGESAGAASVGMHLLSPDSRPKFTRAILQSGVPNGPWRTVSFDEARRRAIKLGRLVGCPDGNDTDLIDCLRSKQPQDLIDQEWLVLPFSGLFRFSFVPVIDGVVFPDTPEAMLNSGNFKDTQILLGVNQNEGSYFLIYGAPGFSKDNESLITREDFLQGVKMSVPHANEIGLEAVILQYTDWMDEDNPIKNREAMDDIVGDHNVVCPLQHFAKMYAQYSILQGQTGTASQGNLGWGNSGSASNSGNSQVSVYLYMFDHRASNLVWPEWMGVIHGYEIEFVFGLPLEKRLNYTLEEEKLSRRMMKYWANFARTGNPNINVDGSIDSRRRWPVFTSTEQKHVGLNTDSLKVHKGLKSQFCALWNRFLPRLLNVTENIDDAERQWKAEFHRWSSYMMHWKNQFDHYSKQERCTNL

[7] = target: T1, Amine oxidase [flavin-containing] B; experiment: Inhibition of human MAO-B assessed as residual activity at 10 time IC50 concentration using p-tyramine as substrate incubated for 30 mins by Amplex Red reagent based fluorescence analysis (reference value: 100 +/- 0.37%); settings: 0.5 h
[8] = target: T1, Amine oxidase [flavin-containing] B; experiment: Inhibition of human MAO-B assessed as residual activity at 100 time IC50 concentration using p-tyramine as substrate incubated for 30 mins by Amplex Red reagent based fluorescence analysis (reference value: 100 +/- 0.37%); settings: 0.5 h
[9] = target: T1, Amine oxidase [flavin-containing] B; experiment: Reversible inhibition of human MAO-B assessed as residual activity at 100 time IC50 concentration using p-tyramine as substrate incubated for 30 mins followed by 100-fold dilution with substrate and buffer solutions by Amplex Red reagent based fluorescence analysis (reference value: 100 +/- 0.37%); settings: 0.5 h
[10] = target: T1, Amine oxidase [flavin-containing] B; experiment: Reversible inhibition of human MAO-B assessed as residual activity at 10 time IC50 concentration using p-tyramine as substrate incubated for 30 mins followed by 100-fold dilution with substrate and buffer solutions by Amplex Red reagent based fluorescence analysis (reference value: 100 +/- 0.37%); settings: 0.5 h
[11] = target: Acetylcholinesterase (Electrophorus electricus) (UniProt O42275); experiment: Inhibition of electric eel AChE assessed as residual activity at 10 time IC50 concentration using acetylthiocholine iodide as substrate incubated for 30 min by DTNB reagent based Ellman's method (reference value: 100 +/- 0.37%)
[12] = target: Acetylcholinesterase (Electrophorus electricus) (UniProt O42275); experiment: Inhibition of electric eel AChE assessed as residual activity at 100 time IC50 concentration using acetylthiocholine iodide as substrate incubated for 30 min by DTNB reagent based Ellman's method (reference value: 100 +/- 0.37%)
[13] = target: Acetylcholinesterase (Electrophorus electricus) (UniProt O42275); experiment: Reversible inhibition of electric eel AChE assessed as residual activity at 100 time IC50 concentration using acetylthiocholine iodide as substrate incubated for 30 min followed by 100-fold dilution with substrate and buffer solutions by DTNB reagent based Ellman's method (reference value: 100 +/- 0.37%)
[14] = target: Acetylcholinesterase (Electrophorus electricus) (UniProt O42275); experiment: Reversible inhibition of electric eel AChE assessed as residual activity at 10 time IC50 concentration using acetylthiocholine iodide as substrate incubated for 30 min followed by 100-fold dilution with substrate and buffer solutions by DTNB reagent based Ellman's method (reference value: 100 +/- 0.37%)
[15] = target: Acetylcholinesterase (Electrophorus electricus) (UniProt O42275); experiment: Non-competitive inhibition of electric eel AChE assessed as decrease in Vmax using acetylthiocholine iodide as substrate incubated for 30 min by Ellman's method based Lineweaver-Burk plot analysis
[16] = target: Acetylcholinesterase (Electrophorus electricus) (UniProt O42275); experiment: Non-competitive inhibition of electric eel AChE assessed as increase in Km using acetylthiocholine iodide as substrate incubated for 30 min by Ellman's method based Lineweaver-Burk plot analysis
[17] = Cytotoxicity against human SH-SY5Y cells assessed as cell viability at 1 uM by MTT assay (reference value: 100 +/- 0.22); format: toxicity, cell-based; settings: read-out: Activity
[18] = Cytotoxicity against human SH-SY5Y cells assessed as cell viability at 5 uM by MTT assay (reference value: 100 +/- 0.22); format: toxicity, cell-based; settings: read-out: Activity
[19] = Cytotoxicity against human SH-SY5Y cells assessed as cell viability at 25 uM by MTT assay (reference value: 100 +/- 0.22); format: toxicity, cell-based; settings: read-out: Activity
[20] = target: Amyloid-beta precursor protein (Homo sapiens) (UniProt P05067); experiment: Inhibition of amyloid beta (1 to 42) (unknown origin) aggregation at 10 uM incubated for 24 hrs by ThT assay relative to control
Chain of Amyloid-beta precursor protein (Homo sapiens) (P05067 whole entry): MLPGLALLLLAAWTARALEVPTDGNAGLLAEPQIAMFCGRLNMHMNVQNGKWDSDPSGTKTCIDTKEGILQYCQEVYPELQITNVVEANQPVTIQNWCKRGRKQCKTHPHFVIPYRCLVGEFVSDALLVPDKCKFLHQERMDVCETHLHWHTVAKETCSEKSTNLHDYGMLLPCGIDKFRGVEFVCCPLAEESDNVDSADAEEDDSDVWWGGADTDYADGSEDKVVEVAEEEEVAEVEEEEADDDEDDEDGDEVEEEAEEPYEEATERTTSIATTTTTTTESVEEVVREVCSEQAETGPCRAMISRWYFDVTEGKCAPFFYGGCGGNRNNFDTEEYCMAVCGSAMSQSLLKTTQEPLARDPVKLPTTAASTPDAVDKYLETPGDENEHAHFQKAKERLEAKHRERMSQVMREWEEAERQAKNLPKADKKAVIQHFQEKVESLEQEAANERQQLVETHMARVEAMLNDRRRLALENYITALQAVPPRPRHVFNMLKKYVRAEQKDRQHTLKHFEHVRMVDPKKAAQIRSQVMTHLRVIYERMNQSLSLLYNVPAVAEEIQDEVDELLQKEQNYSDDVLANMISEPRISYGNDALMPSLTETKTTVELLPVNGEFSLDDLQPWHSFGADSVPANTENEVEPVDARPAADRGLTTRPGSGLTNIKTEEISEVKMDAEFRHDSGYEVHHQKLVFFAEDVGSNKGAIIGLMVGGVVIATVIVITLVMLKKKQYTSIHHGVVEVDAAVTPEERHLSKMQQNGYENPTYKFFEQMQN

[21] = target: Amyloid-beta precursor protein (Homo sapiens) (UniProt P05067); experiment: Inhibition of amyloid beta (1 to 42) (unknown origin) aggregation at 10 uM incubated for 48 hrs by ThT assay relative to control
[22] = target: T2, Amine oxidase [flavin-containing] A; experiment: Inhibition of human MAO-A at 10 uM using p-tyramine as substrate incubated for 30 mins by Amplex Red reagent based fluorescence analysis relative to control; settings: 0.5 h
Acetylcholinesterase [23] = target: Acetylcholinesterase (Homo sapiens, UniProt P22303); experiment: Inhibition of AChE (unknown origin)
Chain of Acetylcholinesterase (Homo sapiens, UniProt P22303) (P22303 whole entry): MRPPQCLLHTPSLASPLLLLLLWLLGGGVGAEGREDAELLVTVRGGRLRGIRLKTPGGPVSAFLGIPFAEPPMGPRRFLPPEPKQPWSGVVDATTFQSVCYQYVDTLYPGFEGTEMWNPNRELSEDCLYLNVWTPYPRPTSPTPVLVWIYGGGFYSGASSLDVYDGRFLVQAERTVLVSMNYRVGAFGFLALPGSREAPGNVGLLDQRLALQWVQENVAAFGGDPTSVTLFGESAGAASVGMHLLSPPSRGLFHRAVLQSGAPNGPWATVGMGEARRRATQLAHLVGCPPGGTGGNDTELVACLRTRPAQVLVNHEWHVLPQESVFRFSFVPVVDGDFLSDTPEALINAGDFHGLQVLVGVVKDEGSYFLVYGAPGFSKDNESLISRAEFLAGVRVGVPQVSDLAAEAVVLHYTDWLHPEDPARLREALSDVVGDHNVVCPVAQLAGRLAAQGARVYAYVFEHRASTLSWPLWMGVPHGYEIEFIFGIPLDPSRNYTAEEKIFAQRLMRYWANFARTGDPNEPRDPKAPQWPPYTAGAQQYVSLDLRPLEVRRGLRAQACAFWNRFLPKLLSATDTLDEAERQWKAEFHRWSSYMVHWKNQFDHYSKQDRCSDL

[24] = target: Cholinesterase (Equus caballus) (UniProt P81908); experiment: Inhibition of equine BuChE at 25 uM using butyryl-thiocholine iodide as substrate incubated for 30 min by DTNB reagent based Ellman's method
[25] = target: T1, Amine oxidase [flavin-containing] B; experiment: Inhibition of MAO-B (unknown origin)
[26] = Inhibition of MAO (unknown origin); design: species or system Homo sapiens

Row | Structure (SMILES) | inhibition at 10 µM [1] | inhibition [3] | inhibition [4] | inhibition at 10 µM [22] | also measured
1 | C#CCOc1ccc(-c2cc(/C(C)=C\c3ccccc3)ncn2)cc1 | 71.2% | 69% | 9.69% | – | inhibition (INH) [2]: Not Active; IC50 [5]: 7.26 µM; IC50 (Acetylcholinesterase [6]): 9.29 µM; Activity [7]: 2.79%; Activity [8]: 2.79%; Activity [9]: 36.07%; Activity [10]: 30.37%; Activity [11]: 7.45%; Activity [12]: 18.6%; Activity [13]: 42.9%; Activity [14]: 97.1%; inhibition [15]: Active; inhibition [16]: Active; viability at 1 µM [17]: 98.1%; viability at 5 µM [18]: 96.3%; viability at 25 µM [19]: 95.7%; inhibition [20]: 21.6%; inhibition [21]: 23.2%
2 | C#CCOc1cccc(-c2cc(/C=C/c3ccccc3)nc(C)n2)c1 | 2.96% | 61.6% | 3.17% | 15.5% | –
3 | C#CCOc1cccc(-c2cc(/C=C/c3ccccc3)ncn2)c1 | 76.4% | 69.2% | 6.43% | 13.9% | IC50 [5]: 4.93 µM; IC50 (Acetylcholinesterase [6]): 9.02 µM; Activity [7]: 2.6%; Activity [8]: 3.4%; Activity [9]: 36.72%; Activity [10]: 34.91%; Activity [11]: 5.18%; Activity [12]: 13.6%; Activity [13]: 47.9%; Activity [14]: 96.7%; inhibition [15]: Active; inhibition [16]: Active; viability at 1 µM [17]: 91%; viability at 5 µM [18]: 90.7%; viability at 25 µM [19]: 86.5%; inhibition [20]: 29.3%; inhibition [21]: 33%
4 | C#CCOc1ccc(-c2cc(/C=C/c3ccccc3)nc(-c3ccccc3)n2)cc1 | 7.18% | 70.2% | 3.6% | 20.9% | –
5 | C#CCOc1ccc(-c2cc(-c3ccc(OCC#C)cc3)nc(N)n2)cc1 | – | – | – | – | IC50 (Acetylcholinesterase [23]): 1.35 µM
6 | C#CCOc1ccc(-c2cc(/C=C/c3ccccc3)nc(N)n2)cc1 | 9.28% | 68.5% | 2.12% | 8.61% | –
7 | C#CCOc1ccc(-c2cc(/C=C/c3ccccc3)nc(N)n2)cc1C | 11.9% | 62.6% | – | 13.1% | inhibition [24]: inactive
8 | Oc1ccc(/C=C/c2cc(O)cc(O)c2)cc1 | – | – | – | – | inhibition [20]: 54.6%
9 | C#CCOc1ccccc1-c1cc(/C=C/c2ccccc2)nc(-c2ccccc2)n1 | 3.49% | 64.2% | 3.6% | 9.57% | –
10 | C#CCNc1ccccc1-c1cc(-c2ccc(OCCN3CCCCC3)cc2)nc(N)n1 | – | – | – | – | IC50 [25]: 0.37 µM; IC50 (Acetylcholinesterase [23]): 40 µM
11 | C#CCOc1cccc(-c2cc(/C(C)=C\c3ccccc3)nc(N)n2)c1 | 69.7% | 66.3% | 7.03% | 12% | IC50 [5]: 8.15 µM; IC50 (Acetylcholinesterase [6]): 8.48 µM
12 | C#CCOc1cccc(-c2cc(/C(C)=C/c3ccccc3)ncn2)c1 | 23.4% | 65.7% | – | 0.87% | inhibition [24]: inactive
13 | C#CCOc1ccc(-c2cc(/C=C/c3ccccc3)nc(C)n2)cc1C | 0.27% | 67% | – | 0.96% | inhibition [24]: inactive
14 | C#CCOc1ccc(-c2cc(/C(C)=C/c3ccccc3)nc(N)n2)cc1 | 1.79% | 71.3% | 3.04% | 8.66% | –
15 | O=C1c2ccccc2-c2cnc(-c3ccccc3)nc21 | – | – | – | – | IC50 [26]: 2.37 µM
16 | C#CCOc1ccc(-c2cc(/C=C/c3ccccc3)nc(C)n2)cc1 | 20.9% | 62.8% | 8.16% | 10% | –
17 | C#CCOc1ccc(-c2cc(/C=C\c3ccccc3)ncn2)cc1 | 67.5% | 63.4% | – | – | inhibition (INH) [2]: Not Active; inhibition [24]: inactive; IC50 [5]: 10.9 µM; IC50 (Acetylcholinesterase [6]): 7.49 µM
18 | C#CCOc1ccc(-c2cc(/C(C)=C/c3ccccc3)nc(C)n2)cc1 | 15.7% | 60.5% | – | 10.9% | inhibition [24]: inactive
19 | C#CCOc1cccc(-c2cc(/C=C/c3ccccc3)nc(-c3ccccc3)n2)c1 | 4.89% | 69.6% | 1.5% | 0.4% | –
20 | N#Cc1cccnc1N1CCN(c2cc(Oc3cccc4cccnc34)ncn2)CC1 | – | – | – | – | IC50 (Acetylcholinesterase [23]): 0.036 µM
